# Data taken from patent publication US3989837A, “Pharmaceutical compositions” (Chinoin Gyogyszer-es Vegyeszeti Termekek Gyara RT, priority 1972, dated 1976).
# Like-named read-outs stand apart in the source and are kept apart here.
# Tests used:
# [1] = Toxicity on mice after oral administration, single dosage (Table 1'); type: in vivo; settings: mouse, in vivo, po, male mice, p.o., 168 hours
# Procedure: (§1) The tests were carried out on male mice weighing 25 to 30 g., not starved previously. The compounds were administered in a dosage of 0.2 ml. of suspension per 10 g. body weight. The individual dosages indicated in Table 1' were administered to 10 mice each. The given amount of active agent was added in a single dosage, and the animals were dept under observation for 7 days (= 168 hours). The number of deceased animals was recorded daily.
# (§2) The LD50 values were calculated according to the Litchfied-Wilcoxon method, by also taking into account the number of animals perished within 168 hours from the administration.
# mice = experiment: as above; type: in vivo; settings: for Perished animals/treated animals: male mice
# Procedure: as §1, §2
# kaoline oedema = experiment: Rat paw oedema, kaoline (Table 4'); type: in vivo; settings: for Effect % (average), inhibition of kaoline oedema / Effect %, inhibition of kaoline oedema: female rats; for Effect % (average), inhibition of kaoline oedema: average of repeated tests
# Procedure: (§3) Inflammatory plantar oedema was provided by the subplantar injection of 0.1 ml. of 5% kaoline or 0.5% carrageenine on female rats each weighing 110 to 130 g., starved for 24 hours. The dorsoplantar diameter of the test animals was measured with a double-armed instrument prior to the administration of the phlogistic (basic value) and at regular intervals (at 2, 3.5 and 5 hours for kaoline and at 1.5, 3 and 4.5 hours for carrageenine) after the administration of the phlogistic. […] The treatment was always carried out 1 hour before the administration of the phlogistic. The animals belonging to the control group received suspending agent only. In order to ensure a uniform hydration grade, 1 ml. of tap water was administered through a stomach tube to the animals simultaneously with the administration of the active agent. During the test period the animals were allowed to consume water ad libitum.
# (§4) The effect was calculated from the difference of the increase in paw diameter observed in the treated and control groups. The daga are given as percentage efficiacy.
# (§5) The significance level was examined by Student's t test. The significance levels are marked by asterisks; the values of the repeated tests are given separately.
# carrageenine oedema = experiment: Rat paw oedema, carrageenine (Table 5'); type: in vivo; settings: for Effect %, inhibition of carrageenine oedema: female rats
# Procedure: as §3, §4, §5
# cotton granuloma = experiment: Cotton granuloma, comparison with Indomethacine (Table 6); type: in vivo, rat; settings: for Effect %, cotton granuloma: male rats, 7 days
# Procedure: Two cotton beads, each weighing 23 to 27 mg., were implanted under the dorsal skin of the animals in aether narcosis, under semisterile conditions, along both sides of the vertebral column. The compound under examination was administered twice a day for 7 days in oral dosages of 0.2 ml./100 g. body weight, in a suspension formed with 1% methyl cellulose. On the 8th day the animals were killed by etheral overnarcosis, the granulomes were removed, dried at 50° C for 5 hours, and then weighed. The animals belonging to the control group were treated similarly, but they received suspending agent only. The percentage efficiacy was calculated from the weight differences of the granuloma tissues observed for the treated and control groups. The significance was examined by the t test.
# writhing syndrome = experiment: Writhing syndrome, comparison with Indomethacine (Table 7); type: in vivo, mouse; settings: for Effect % average, writhing: male mice
# Procedure: The tests were carried out on male mice each weighing 15 to 18 g., starved for 16 hours prior to treatment. 0.1 ml./10 g. body weight of 1% acetic acid solution was injected intraperitoneally to the animals. The sterile inflammation occurred on the action of acetic acid provoked a characteristic syndrome (writhing). The number of writhings was counted during an observation period of 20 minutes, starting 15 minutes after the administration of acetic acid. The substance to be tested was administered orally as a suspension, in a dosage of 0.1 ml./10 g. body weight 2 to 4 hours before the acetic acid injection. The average number of writhings observed for the treated animals was compared to that observed in the control group, and the percentage inhibition was calculated from the difference.
# rats = experiment: Ulcerogeneous action on rats, comparison with Indomethacine (Table 3'); settings: for Animals having lesions on the intestines / Survivals / Ulcer number: male rats, 5 days
structure (smiles),measurement,setting,value
"COc1ccc2c(c1)c(CC(=O)OCC(Cl)(Cl)Cl)c(C)n2C(=O)c1ccc(Cl)cc1 [Example 5, 1-(p-chlorobenzoyl)-2-methyl-5-methoxy-indol-3-yl-acetic-acid trichloroethyl ester]",LD50 at 168 h,"[1]; equivalent amounts of Indomethacine, read-out: LD50 as equivalent amount of Indomethacine",1570 mg/kg
same,LD50 at 168 h,[1]; read-out: LD50,2150 mg/kg
same,therapeutical width compared with Indomethacine,mice; considering the toxicity values,far more favorable than that of Indomethacine
same,Perished animals/treated animals,"mice; oral 1367 (1000) mg./kg., 24 h",0/10
same,Perished animals/treated animals,"mice; oral 1367 (1000) mg./kg., 48 h",0/10
same,Perished animals/treated animals,"mice; oral 1367 (1000) mg./kg., 72 h",0/10
same,Perished animals/treated animals,"mice; oral 1367 (1000) mg./kg., 96 h",0/10
same,Perished animals/treated animals,"mice; oral 1367 (1000) mg./kg., 120 h",0/10
same,Perished animals/treated animals,"mice; oral 1367 (1000) mg./kg., 144 h",0/10
same,Perished animals/treated animals,"mice; oral 1367 (1000) mg./kg., 168 h",0/10
same,Perished animals/treated animals,"mice; oral 2050 (1500) mg./kg., 24 h",0/10
same,Perished animals/treated animals,"mice; oral 2050 (1500) mg./kg., 48 h",0/10
same,Perished animals/treated animals,"mice; oral 2050 (1500) mg./kg., 72 h",0/10
same,Perished animals/treated animals,"mice; oral 2050 (1500) mg./kg., 96 h",0/10
same,Perished animals/treated animals,"mice; oral 2050 (1500) mg./kg., 120 h",0/10
same,Perished animals/treated animals,"mice; oral 2050 (1500) mg./kg., 144 h",0/10
same,Perished animals/treated animals,"mice; oral 2050 (1500) mg./kg., 168 h",1/10
same,Perished animals/treated animals,"mice; oral 2734 (2000) mg./kg., 24 h",0/10
same,Perished animals/treated animals,"mice; oral 2734 (2000) mg./kg., 48 h",0/10
same,Perished animals/treated animals,"mice; oral 2734 (2000) mg./kg., 72 h",2/10
same,Perished animals/treated animals,"mice; oral 2734 (2000) mg./kg., 96 h",2/10
same,Perished animals/treated animals,"mice; oral 2734 (2000) mg./kg., 120 h",4/10
same,Perished animals/treated animals,"mice; oral 2734 (2000) mg./kg., 144 h",6/10
same,Perished animals/treated animals,"mice; oral 2734 (2000) mg./kg., 168 h",6/10
same,Perished animals/treated animals,"mice; oral 3417 (2500) mg./kg., 24 h",0/10
same,Perished animals/treated animals,"mice; oral 3417 (2500) mg./kg., 48 h",1/10
same,Perished animals/treated animals,"mice; oral 3417 (2500) mg./kg., 72 h",1/10
same,Perished animals/treated animals,"mice; oral 3417 (2500) mg./kg., 96 h",3/10
same,Perished animals/treated animals,"mice; oral 3417 (2500) mg./kg., 120 h",4/10
same,Perished animals/treated animals,"mice; oral 3417 (2500) mg./kg., 144 h",6/10
same,Perished animals/treated animals,"mice; oral 3417 (2500) mg./kg., 168 h",7/10
same,Perished animals/treated animals,"mice; oral 4101 (3000) mg./kg., 24 h",0/10
same,Perished animals/treated animals,"mice; oral 4101 (3000) mg./kg., 48 h",1/10
same,Perished animals/treated animals,"mice; oral 4101 (3000) mg./kg., 72 h",3/10
same,Perished animals/treated animals,"mice; oral 4101 (3000) mg./kg., 96 h",4/10
same,Perished animals/treated animals,"mice; oral 4101 (3000) mg./kg., 120 h",5/10
same,Perished animals/treated animals,"mice; oral 4101 (3000) mg./kg., 144 h",7/10
same,Perished animals/treated animals,"mice; oral 4101 (3000) mg./kg., 168 h",7/10
same,"Effect % (average), inhibition of kaoline oedema","kaoline oedema; p.o. 13.67 (10) mg./kg., 2 hours",10.2%
same,"Effect % (average), inhibition of kaoline oedema","kaoline oedema; p.o. 13.67 (10) mg./kg., 3.5 hours",15.8%
same,"Effect % (average), inhibition of kaoline oedema","kaoline oedema; p.o. 13.67 (10) mg./kg., 5 hours",18.8%
same,"Effect % (average), inhibition of kaoline oedema","kaoline oedema; p.o. 34.17 (25) mg./kg., 2 hours",12.0%
same,"Effect % (average), inhibition of kaoline oedema","kaoline oedema; p.o. 34.17 (25) mg./kg., 3.5 hours",22.1%
same,"Effect % (average), inhibition of kaoline oedema","kaoline oedema; p.o. 34.17 (25) mg./kg., 5 hours",27.3%
same,"Effect %, inhibition of kaoline oedema","kaoline oedema; p.o. 68.35 (50) mg./kg., 2 hours",21.9%
same,"Effect %, inhibition of kaoline oedema","kaoline oedema; p.o. 68.35 (50) mg./kg., 3.5 hours",30.2%
same,"Effect %, inhibition of kaoline oedema","kaoline oedema; p.o. 68.35 (50) mg./kg., 5 hours",33.3%
same,"Effect %, inhibition of kaoline oedema","kaoline oedema; p.o. 136.7 (100) mg./kg., 2 hours",26.9%
same,"Effect %, inhibition of kaoline oedema","kaoline oedema; p.o. 136.7 (100) mg./kg., 3.5 hours",41.1%
same,"Effect %, inhibition of kaoline oedema","kaoline oedema; p.o. 136.7 (100) mg./kg., 5 hours",37.9%
same,"dosage inhibiting oedema, times higher than Indomethacine","kaoline oedema; kaoline oedema, molar equivalents compared",about 2.5 times
same,"antiphlogistic effect, times weaker than Indomethacine",kaoline oedema; summary of the comparison,about 2.5 times
same,"dosage inhibiting oedema, times higher than Indomethacine","carrageenine oedema; carrageenine oedema, molar equivalents compared",about 2.5 times
same,"Effect %, inhibition of carrageenine oedema","carrageenine oedema; p.o. 13.67 (10) mg./kg., 1.5 hours",9.8%
same,"Effect %, inhibition of carrageenine oedema","carrageenine oedema; p.o. 13.67 (10) mg./kg., 3 hours",15.8%
same,"Effect %, inhibition of carrageenine oedema","carrageenine oedema; p.o. 13.67 (10) mg./kg., 4.5 hours",16.0%
same,"Effect %, inhibition of carrageenine oedema","carrageenine oedema; p.o. 34.17 (25) mg./kg., 1.5 hours",10.8%
same,"Effect %, inhibition of carrageenine oedema","carrageenine oedema; p.o. 34.17 (25) mg./kg., 3 hours",18.3%
same,"Effect %, inhibition of carrageenine oedema","carrageenine oedema; p.o. 34.17 (25) mg./kg., 4.5 hours",21.9%
same,"Effect %, inhibition of carrageenine oedema","carrageenine oedema; p.o. 68.35 (50) mg./kg., 1.5 hours",14.8%
same,"Effect %, inhibition of carrageenine oedema","carrageenine oedema; p.o. 68.35 (50) mg./kg., 3 hours",19.9%
same,"Effect %, inhibition of carrageenine oedema","carrageenine oedema; p.o. 68.35 (50) mg./kg., 4.5 hours",28.5%
same,effect on cotton granuloma compared with Indomethacine,cotton granuloma; even when added in a twofold dosage,lower than that of Indomethacine
same,"Effect %, cotton granuloma","cotton granuloma; oral daily 5.5 (4) mg./kg., p 0.01",19.5%
same,"Effect %, cotton granuloma","cotton granuloma; oral daily 11 (8) mg./kg., p 0.001",24.8%
same,"Effect % average, writhing","writhing syndrome; p.o. 6.8 (5) mg./kg., 2 hours",24.8%
same,"Effect % average, writhing","writhing syndrome; p.o. 6.8 (5) mg./kg., 4 hours",19.3%
same,"Effect % average, writhing","writhing syndrome; p.o. 17.1 (12.5) mg./kg., 2 hours",56.1%
same,"Effect % average, writhing","writhing syndrome; p.o. 17.1 (12.5) mg./kg., 4 hours",53.5%
same,"dosage provoking the same analgesic effect, times higher than Indomethacine","writhing syndrome; writhing, ratio refers to molar equivalents",2.5 times
same,Animals having lesions on the intestines,rats; oral 27.3 (20) mg./kg.,10.5%
same,Survivals,rats; oral 27.3 (20) mg./kg.,19
same,Ulcer number,rats; oral 27.3 (20) mg./kg.,0
same,Animals having lesions on the intestines,rats; oral 54.7 (40) mg./kg.,80%
same,Survivals,rats; oral 54.7 (40) mg./kg.,15
same,Ulcer number,rats; oral 54.7 (40) mg./kg.,0.27
same,frequency of occurrence of intestinal lesions compared with Indomethacine,"rats; rats, oral, fivefold dosage",doubled
same,lesions on intestines compared with Indomethacine,"rats; rats, oral, fivefold dosage",far more severe
same,"extent of perishment, lower than that caused by Indomethacine 8 mg./kg.","rats; rats, oral, fivefold dosage with respect to Indomethacine (8 mg./kg.)",50%
same,lesions on the mucous membrane of the stomach,"rats; rats, oral, Indomethacine 4 and 8 mg./kg., […]",slightly more severe lesions
